Here are results for three molecules from US4914215A, “Aminopropyl thiophene compounds” (The United States of America as represented by the United …, priority 1989, dated 1990).

Structures are written as SMILES.

The subject of data set [1] is brain. The data set is described as follows: Tissue distribution of 5-halothiophene-2-isopropylamines in Fisher rats. To be noted: in words. In kind it is in vivo. From the text:
5-HALOTHIOPHENE-2-ISOPROPYLAMINES
Mean Brian. % Dose/gm (Mean Brain:Blood)

For data set [2], the system named is brain. The following applies: five minutes after administration; versus HIPDM; cited from earlier work.
A further data set relates to lungs. To be noted: versus HIPDM; cited from earlier work.

`CC(N)Cc1ccc([125I])s1` (stereo not shown) [Compound I-125, 2-(2-aminopropyl)-5-radiohalothiophene]: in the data set on brain [1], the brain retention entry is “good retention”, the brain uptake entry is “high brain uptake” and the brain-to-blood ratios entry is recorded as “high brain-to-blood ratios”.

`CC(N)Cc1ccc([82Br])s1` (stereo not shown) [Br-82, 2-(2-aminopropyl)-5-bromothiophene]: in the data set on brain [1], the brain retention entry is “good brain uptake and retention”; the brain uptake result is listed as “good brain uptake”.

Consider `CC(C)NC(C)Cc1ccc(I)cc1` (stereo not shown) [IMP, N-isopropyl-p-iodoamphetamine], for which the “amount of activity in the brain relative to HIPDM” value in the data set with brain [2] is given as “almost twice”. The “clearance of the lungs relative to HIPDM” value in the data set with lungs is “faster”.
